Laboratory results published in patent US12144791B2, “KRAS agonists, pharmaceutical compositions, and uses in managing cancer” (Emory University, priority 2019, dated 2024).

Columns and labels:
A549 and H157 = test: Annexin V/PI apoptosis, KRA-533 alone or with 3-MA; format: cell-based, human; details: 48 h, in combination with KRA-533
Experimental: To determine whether autophagy plays a role in apoptosis induced by KRA-533, apoptosis was measured by FACS analysis of Annexin V/PI staining following treatments of A549 and H157 with KRA533 alone or in combination with autophagy inhibitor 3-MA for 48 h.

A549 and H157 cells = test: Western blot of autophagy marker p62 with or without chloroquine; format: cell-based, human; details: 48 h, in combination with KRA-533
Experimental: To assess whether the autophagy inhibitor regulates KRA-533-induced autophagy formation, A549 and H157 cells were treated with KRA-533 in the absence or presence of autophagy inhibitor chloroquine for 48 h, followed by Western blot analysis of the autophagy marker p62.

| SMILES | KRA-533-induced apoptosis, 3-MA added (A549 and H157) | p62 expression, chloroquine added to KRA-533 (A549 and H157 cells) |
| --- | --- | --- |
| Cn1cnc(N)c2ncnc1-2 [3-MA, 3-methyladenine] | enhanced KRA-533-induced apoptosis |  |
| CCN(CC)CCCC(C)Nc1ccnc2cc(Cl)ccc12 (centres unmarked) [chloroquine, reference compound] |  | restored p62 expression by blocking KRA-533-induced p62 degradation |
